Values quoted from earlier work as cited in patent US20060210645A1, “Pharmaceutically acceptable carrier for ophthalmic compositions” (priority 2005, published 2006).

What was measured:
[1] = relative to methyltestosterone
[2] = relative to methyltestosterone; remark: listed apart in the source

C[C@]12COC(=O)C[C@@H]1CC[C@@H]1[C@@H]2CC[C@@]2(C)[C@H]1CC[C@]2(C)O [oxandrolone, 17 alpha-methyl-17β-hydroxy-2-oxa-5 alpha-androstan-3-one]
androgenic activity, % of that of methyltestosterone [1]: 24%
anabolic activity, % of that of methyltestosterone [2]: 322%
